Laboratory results taken from patent US20210038503A1, “COMPOSITIONS AND METHODS FOR TOPICAL TREATMENT OF DERMAL AND OCULAR CONDITIONS” (GABADERM, INC., priority 2018, published 2021).
“Also recorded” adds a separate entry of the source. Like-named read-outs stand apart in the source and are kept apart here.

Assays:
[1] = system: psoriatic lesions; conditions: for Number of psoriatic lesions: 2% propofol solution twice daily
Text: Areas of the lesion are roughly outlined.
The plaque psoriatic lesion was raised and more lightly colored than the unaffected skin.

[2] = in vivo; cited from earlier work
[3] = system: skin
[4] = estimated 250 times lower than rat plasma levels
[5] = system: oxalobenzone treated ear; experiment: Oxalobenzone induced mouse ear inflammatory model (ear thickness); type: in vivo; conditions: for Inflammation (ear thickness): 100 μl at 1 hour and 6 hours post challenge, 24 hours and 48 hours
Experimental: Animals were sensitized to oxalbenzone on the abdomen on day 2 with 150 μl 3% oxalbenzone. Animals were challenged on day 5 with 1% oxalobenzone to both sides of one ear. This served as an in vivo pharmacological disease models for psoriasis and atopic dermatitis.
Ear thickness was measured with calipers at 24 hours and 48 hours and compared to contralateral non-challenged ear. Ear thickness served as an indication of swelling due to inflammation. The greater the ear thickness, the greater the inflammation.

[6] = remark: listed apart in the source
Experimental: Stability was determined visually by separation of the emulsion and also analytically by changes in measured concentration of the cream and/or the formation of degradation products. […] Heavier oils include petrolatum or mineral oil.

[7] = in vivo; cited from earlier work; remark: listed apart in the source
[8] = local administration of propofol
[9] = 20% propofol-propylene glycol plus 30% w/w surfactant penetration enhancer
[10] = 20% w/w propofol in propylene glycol

In the case of CC(C)c1cccc(C(C)C)c1O [propofol], the “Number of psoriatic lesions” value ([1]; after a week) is reported as “further reduced”, the “Number of psoriatic lesions” value ([1]; after three days) is reported as “reduced” and the “Plaque psoriatic lesion height and area, left forearm” value ([1]; 10% propofol in cream twice daily, over the course of treatment) is reported as “diminished in height and area”. For the same compound, the Local anti-inflammatory effect [1, 8] was “anti-inflammatory effects locally”, the Sustained anti-nociceptive effect [1, 8] was “reduced sensation of itch and burning” and the “Psoriatic lesions (FIG. 7 legend)” value ([1]; propofol in a cream based formulation) was “reduced”. For the same compound, the Neurogenic inflammation ([1]; repeated application of propofol) was “less neurogenic inflammation”, the “Gutate and plaque psoriatic lesions” value ([1]; topical application of propofol, summary) was “resolution of gutate and plaque psoriatic lesions” and the Oral bioavailability [2] was < 10%. The “Acute skin reaction (redness with wheal-flare effect)” value ([3]; 10% propofol in DMSO) was “significant burning and inflammation”, the “Time to onset of burning and inflammation after treatment” value ([3]; 10% propofol in DMSO) was 10 to 15 min and the “Time until acute effect resolved” value ([3]; 10% propofol in DMSO) was “about 90 minutes”. The “Treatment effect despite initial inflammatory response” value ([3]; 10% propofol in DMSO) was “significant treatment effect”, the “Acute skin reaction (redness with wheal-flare effect)” value ([3]; 10% propofol in mineral oil containing cream) was “did not result in this effect” and the “Increase of plasma concentration” value [9] was 3 to 5 fold. For the same compound, the Plasma concentration [9] was “approximately 350 ng/ml”, the “Increase of plasma concentration” value [10] was 2-3 fold and the Plasma concentration [10] was 175 to 200 ng/mL. The Plasma concentration (rats, 500 mg of 100% propofol on skin, ~[…] body surface area) was 400 ng/mL, the Plasma levels (rats, 20% w/w propofol in petrolatum (100 mg total dose), ~[…] body surface area) was 50 to 100 ng/mL and the “Human equivalent plasma concentration” value [4] was 0.4 to 2 ng/mL. The “Inflammation (ear thickness)” value ([5]; 10% w/w propofol in DMSO) was “significantly reduces inflammation”, the “Inflammation (ear thickness)” value ([5]; 20% w/w propofol in DMSO) was “significantly reduces inflammation” and the “Skin inflammation / ear swelling” value ([5]; topical propofol, formulation not specified at the place) was “reduces skin inflammation; also recorded: reduces ear swelling and inflammation”. For the same compound, the Stability ([6]; oil-in-water or water-in-oil formulations with a heavier oil or longer chain oil (petrolatum or mineral oil)) was “stable”, the Stability ([6]; penetration enhancer limited to less than 10% w/w, particularly propofol greater than 2%) was “stable” and the Stability ([6]; propofol >10% w/w in HRT™ (gel or cream)) was “not stable”. For the same compound, the Stability ([6]; propofol >10% w/w in Lipoderm®) was “not stable”, the Stability ([6]; propofol >10% w/w in Medihol™ gel base) was “not stable” and the Stability ([6]; propofol >10% w/w in Vanish-Pen™ Cream base) was “not stable”. The Stability ([6]; propofol >10% w/w in VersaPro™ (lotion or cream)) was “not stable”, the Stability ([6]; propofol at 10% w/w in Lipoderm® (mineral oil-free)) was “not stable” and the “Plasma levels at which wakening from propofol anesthesia occurs” value [7] was “less than 500 μg/ml”. The “Plasma steady state levels used to maintain anesthetized state” value [7] was 1,000-2,000 ng/ml.
